Laboratory results: PMC7126999 (Bioorganic & Medicinal Chemistry, 2015)
Values joined by “and” are separate entries in the source; they are usually repeats but may differ in a detail not shown here. Equal values may be shown once. Read-outs that look alike come from different tables or passages of the source.

Legend:
[1] = test system: HEL cells; experiment: Cytotoxicity, cell morphology; format: cell-based, human; conditions: exp. 1 and exp. 2
[2] = test system: human cervix carcinoma HeLa cells; experiment: Inhibition of proliferation of human cervix carcinoma HeLa cells; format: cell-based; conditions: read-out: IC50 HeLa
[3] = Cell viability of MDCK cells, formazan-based MTS assay; design: species or system canine; conditions: dog, MDCK cells
[4] = Cell viability of CrFK cells, formazan-based MTS assay; design: species or system feline; conditions: cat, CrFK cells
[5] = test system: HSV and Vaccinia viruses; experiment: microbe, parasite or virus in culture; format: cell-based, herpes simplex virus; vaccinia virus; conditions: Orthopoxvirus vaccinia, read-out: EC50 against HSV and Vaccinia viruses
[6] = test system: three strains of herpes simplex virus; format: cell-based; conditions: HEL, read-out: EC50 against three strains of herpes simplex virus
[7] = test system: Vaccinia virus; experiment: microbe, parasite or virus in culture; format: cell-based; conditions: for EC50: Orthopoxvirus vaccinia, HEL, read-out: EC50 Vaccinia virus
[8] = test system: human lymphocyte CEM; experiment: Inhibition of proliferation of human T-lymphocyte CEM cells; format: cell-based; conditions: for cytostatic activity against CEM relative to 5-fluorouracil: fold more active than 5-fluorouracil; for IC50: read-out: IC50 CEM
[9] = test system: L1210, CEM and HeLa cell lines; experiment: Cytostatic activity on L1210, CEM and HeLa cell lines; format: cell-based, murine; human; conditions: fold more cytostatic than cis-9d / cis-9f
[10] = test system: cytomegalovirus; experiment: Antiviral activity against cytomegalovirus in HEL cells; format: cell-based, human cytomegalovirus (HCMV); conditions: read-out: EC50 toward cytomegalovirus, strain not specified
[11] = test system: murine leukemia L1210; experiment: Inhibition of proliferation of murine leukemia L1210 cells; format: cell-based; conditions: read-out: IC50 L1210; inhibit tumor cell proliferation by 50%
[12] = test system: MDCK cells; experiment: Cell viability of MDCK cells, formazan-based MTS assay; design: species or system canine; conditions: read-out: CC50 MDCK; cell viability, colorimetric formazan-based MTS assay
[13] = test system: CrFK cells; experiment: Cell viability of CrFK cells, formazan-based MTS assay; design: species or system feline; conditions: read-out: CC50 CrFK; cell viability, colorimetric formazan-based MTS assay
[14] = test system: Punta Toro virus; experiment: microbe, parasite or virus in culture; format: cell-based; conditions: Vero, read-out: EC50 Punta Toro virus
[15] = test system: Coxsackie virus B4; format: cell-based; conditions: Vero cell cultures; DS-10.000 in μg/ml
[16] = Table 3 (cytomegalovirus assays)
[17] = inhibit tumor cell proliferation by 50%

CCCN1C(=O)c2cccc3cc(NC(=O)[C@H]4C[C@@H](P(=O)(OCC)OCC)N(C)O4)cc(c23)C1=O (racemic) [cis-9a, Diethyl cis-5-(N-propylnaphthalimide-3-ylcarbamoyl)-2-methylisoxazolidin-3-yl-3-phosphonate]
Cytotoxicity Cell morphology MCC [1, 16]: >100 μM
Cytotoxicity Cell morphology MCC ([1]; Table 4 (VZV assays)): >100 μM

CCCCN1C(=O)c2cccc3cc(NC(=O)[C@H]4C[C@@H](P(=O)(OCC)OCC)N(C)O4)cc(c23)C1=O (racemic) [cis-9b, Diethyl cis-5-(N-butylnaphthalimide-3-ylcarbamoyl)-2-methylisoxazolidin-3-yl-3-phosphonate]
IC50 ([2]; Homo sapiens, HeLa): 25 ± 3 µM
Cytotoxicity Cell morphology MCC [1, 16]: 100 μM
Cytotoxicity Cell morphology MCC ([1]; Table 4 (VZV assays)): >100 μM
CC50 [3]: > 100 µM
CC50 [4]: > 100 µM

CCOP(=O)(OCC)[C@@H]1C[C@H](C(=O)Nc2cc3c4c(cccc4c2)C(=O)N(CC(C)C)C3=O)ON1C (racemic) [cis-9c, Diethyl cis-5-(N-isobutylnaphthalimide-3-ylcarbamoyl)-2-methylisoxazolidin-3-yl-3-phosphonate]
Cytotoxicity Cell morphology MCC [1, 16]: >100 μM
Cytotoxicity Cell morphology MCC ([1]; Table 4 (VZV assays)): >100 μM

CCOP(=O)(OCC)[C@@H]1C[C@H](C(=O)Nc2cc3c4c(cccc4c2)C(=O)N(CCN(C)C)C3=O)ON1C (racemic) [cis-9d, Diethyl cis-5-[N-(2-dimethylamino)ethylnaphthalimide-3-ylcarbamoyl]-2-methylisoxazolidin-3-yl-3-phosphonate]
EC50 [5]: 45 to 58 µM
Cytotoxicity Cell morphology MCC [1, 16]: >100 μM
Cytotoxicity Cell morphology MCC ([1]; Table 4 (VZV assays)): 100 μM
EC50 [6]: 45 to 100 µM

CCOP(=O)(OCC)[C@@H]1C[C@H](C(=O)Nc2cc3c4c(cccc4c2)C(=O)N(CCN(CC)CC)C3=O)ON1C (racemic) [cis-9e, Diethyl cis-5-[N-(2-diethylamino)ethylnaphthalimide-3-ylcarbamoyl]-2-methylisoxazolidin-3-yl-3-phosphonate]
CC50 [3]: > 100 µM

CCOP(=O)(OCC)[C@@H]1C[C@H](C(=O)Nc2cc3c4c(cccc4c2)C(=O)N(CCN2CCCC2)C3=O)ON1C (racemic) [cis-9f, Diethyl cis-5-[N-(2-pirolidyn-1-yl)ethylnaphthalimide-3-ylcarbamoyl]-2-methylisoxazolidin-3-yl-3-phosphonate]
Cytotoxicity Cell morphology MCC [1, 16]: >100 μM
Cytotoxicity Cell morphology MCC ([1]; Table 4 (VZV assays)): 100 μM and >100 μM
EC50 [7]: 45 to 100 µM

CCCN1C(=O)c2cccc3cc(NC(=O)[C@@H]4C[C@@H](P(=O)(OCC)OCC)N(C)O4)cc(c23)C1=O (racemic) [trans-9a, Diethyl trans-5-(N-propylnaphtalimide-3-ylcarbamoyl)-2-methylisoxazolidin-3-yl-3-phosphonate]
Cytotoxicity Cell morphology MCC [1, 16]: >100 μM
Cytotoxicity Cell morphology MCC ([1]; Table 4 (VZV assays)): >100 μM
CC50 [4]: > 100 µM

CCCCN1C(=O)c2cccc3cc(NC(=O)[C@@H]4C[C@@H](P(=O)(OCC)OCC)N(C)O4)cc(c23)C1=O (racemic) [trans-9b, Diethyl trans-5-(N-butylnaphthalimide-3-ylcarbamoyl)-2-methylisoxazolidin-3-yl-3-phosphonate]
Cytotoxicity Cell morphology MCC [1, 16]: 100 μM
Cytotoxicity Cell morphology MCC ([1]; Table 4 (VZV assays)): >100 μM

CCOP(=O)(OCC)[C@@H]1C[C@@H](C(=O)Nc2cc3c4c(cccc4c2)C(=O)N(CCN(C)C)C3=O)ON1C (racemic) [trans-9d, Diethyl trans-5-[N-(2-dimethylamino)ethylnaphthalimide-3-ylcarbamoyl]-2-methylisoxazolidin-3-yl-3-phosphonate]
EC50 [5]: 45 to 58 µM
Cytotoxicity Cell morphology MCC [1, 16]: 100 μM
Cytotoxicity Cell morphology MCC ([1]; Table 4 (VZV assays)): >100 μM
EC50 [6]: 45 to 100 µM
cytostatic activity against CEM relative to 5-fluorouracil [8]: five-fold
cytostatic activity of trans-isomer relative to corresponding cis-isomer [9]: two-fold

CCOP(=O)(OCC)[C@@H]1C[C@@H](C(=O)Nc2cc3c4c(cccc4c2)C(=O)N(CCN(CC)CC)C3=O)ON1C (racemic) [trans-9e, Diethyl trans-5-[N-(2-diethylamino)ethylnaphthalimide-3-ylcarbamoyl]-2-methylisoxazolidin-3-yl-3-phosphonate]
CC50 [4]: > 100 µM

CCOP(=O)(OCC)[C@@H]1C[C@@H](C(=O)Nc2cc3c4c(cccc4c2)C(=O)N(CCN2CCCC2)C3=O)ON1C (racemic) [trans-9f, Diethyl trans-5-[N-(2-pirolidyn-1-yl)ethylnaphthalimide-3-ylcarbamoyl]-2-methylisoxazolidin-3-yl-3-phosphonate]
EC50 [10]: 8.9 to 20 µM
EC50 [5]: 45 to 58 µM
Cytotoxicity Cell morphology MCC [1, 16]: 100 μM
Cytotoxicity Cell morphology MCC ([1]; Table 4 (VZV assays)): 100 μM
EC50 [6]: 45 to 100 µM
cytostatic activity against CEM relative to 5-fluorouracil [8]: five-fold
cytostatic activity of trans-isomer relative to corresponding cis-isomer [9]: two-fold

CCOP(=O)(OCC)[C@H]1C[C@H](CN2C(=O)c3cccc4cccc(c34)C2=O)ON1C (relative stereo) [trans-10a/cis-10a (93:7), Diethyl trans-5-(1,3-dioxo-2,3-dihydro-1H-benzo[de]izochinolin-2-ylmethyl)-2-methylisoxazolidin-3-yl-3-phosphonate]
IC50 [2, 17]: 77 ± 20 µM
IC50 [11]: 180 ± 47 µM
IC50 [8, 17]: 111 ± 14 µM
CC50 [12]: > 100 µM
CC50 [13]: > 100 µM

CCOP(=O)(OCC)[C@H]1C[C@H](CN2C(=O)c3cccc4cc([N+](=O)[O-])cc(c34)C2=O)ON1C (relative stereo) [trans-10b/cis-10b (94:6), Diethyl trans-5-(5-nitro-1,3-dioxo-2,3-dihydro-1H-benzo[de]izochinolin-2-ylmethyl)-2-methylisoxazolidin-3-yl-3-phosphonate]
IC50 [2, 17]: 20 ± 3 µM
IC50 [11]: 34 ± 6 µM
IC50 [8, 17]: 51 ± 6 µM
CC50 [12]: > 100 µM
CC50 [13]: > 100 µM

CCOP(=O)(OCC)[C@H]1C[C@H](CN2C(=O)c3cccc4cc(N)cc(c34)C2=O)ON1C (relative stereo) [trans-10c/cis-10c (93:7), Diethyl trans-5-(5-amino-1,3-dioxo-2,3-dihydro-1H-benzo[de]izochinolin-2-ylmethyl)-2-methylisoxazolidin-3-yl-3-phosphonate]
IC50 [2, 17]: 101 ± 58 µM
IC50 [11]: 95 ± 42 µM
IC50 [8, 17]: 99 ± 2 µM
CC50 [12]: > 100 µM
CC50 [13]: > 100 µM

CCOP(=O)(OCC)[C@H]1C[C@H](CN2C(=O)c3cccc4cc(NC(C)=O)cc(c34)C2=O)ON1C (relative stereo) [trans-10d/cis-10d (93:7), Diethyl trans-5-(5-acetamido-1,3-dioxo-2,3-dihydro-1H-benzo[de]izochinolin-2-ylmethyl)-2-methylisoxazolidin-3-yl-3-phosphonate]
IC50 [2, 17]: 111 ± 3 µM
IC50 [11]: 136 ± 14 µM
IC50 [8, 17]: 125 ± 4 µM
CC50 [12]: > 100 µM
CC50 [13]: > 100 µM

O=c1[nH]cc(F)c(=O)[nH]1 [5-Fluorouracil, reference compound]
IC50 ([2]; Homo sapiens, HeLa): 0.54 ± 0.12 µM
IC50 ([8]; Homo sapiens, Lymphocyte): 18 ± 5 µM

Nc1nc2c(ncn2COCCO)c(=O)[nH]1 [Acyclovir, acyclovir]
activity against vaccinia virus, in words [7]: inactive

O=c1[nH]c(=O)n([C@H]2C[C@H](O)[C@@H](CO)O2)cc1/C=C/Br [Brivudin, brivudin, reference compound]
Cytotoxicity Cell morphology MCC ([1]; Table 4 (VZV assays)): >300 μM
EC50 [7]: 17 to 22 µM

Nc1ccn(C[C@@H](CO)OCP(=O)(O)O)c(=O)n1.O.O [Cidofovir, cidofovir, reference compound]
Cytotoxicity Cell morphology MCC [1, 16]: >350 μM

Nc1nc2c(ncn2COC(CO)CO)c(=O)[nH]1 [Ganciclovir, ganciclovir, reference compound]
Cytotoxicity Cell morphology MCC [1, 16]: >350 μM
activity against vaccinia virus, in words [7]: inactive

NC(=O)c1ncn([C@@H]2O[C@H](CO)[C@@H](O)[C@H]2O)n1 [Ribavirin, ribavirin]
EC50 [14]: 250 µM

CCOP(=O)(OCC)[C@@H]1C[C@@H](C(=O)Nc2cc3c4c(cccc4c2)C(=O)N(CC(C)C)C3=O)ON1C [trans-9c, Diethyl trans-5-(N-isobutylnaphthalimide-3-ylcarbamoyl)-2-methylisoxazolidin-3-yl-3-phosphonate]
Cytotoxicity Cell morphology MCC [1, 16]: >100 μM
Cytotoxicity Cell morphology MCC ([1]; Table 4 (VZV assays)): >100 μM
CC50 [4]: > 100 µM

dextran sulfate [DS-10.000]
EC50 Coxsackie virus B4 [15]: >100 µg/mL
